{"source": "patent US20260308158A1", "about": "“TARGETING RNAS ASSOCIATED WITH TAUOPATHIES WITH SMALL MOLECULES” (University of Florida Research Foundation, Incorporated, priority 2023, published 2026)", "key": {"[1]": {"experiment": "Plasma protein binding by equilibrium dialysis", "format": "in vitro ADME", "settings": "37° C., 6 h (2 at 5 μM), read-out: free fraction in plasma", "description": "Plasma and brain binding. Plasma protein binding was determined by equilibrium dialysis using a Thermo Scientific™ RED Device per the manufacturer's protocol. Each sample was prepared by addition of 2 into 100 μL plasma with final concentration of 5 μM (0.1% (v/v) DMSO). 1×PBS was used as dialysis buffer and was added into the buffer chamber. The plate was incubated with shaking at 37° C. for 6 h. The concentration of 2 in the plasma and buffer compartments was determined as described in Quantitation of 2 in Mouse Plasma and Brain. The free fraction was calculated as [buffer]/[plasma]."}, "[2]": {"tested_on": "MAPT exon 10 splicing in LAN5 cells", "experiment": "4R/3R endogenous MAPT mRNA by RT-qPCR in LAN5 neuroblastoma cells", "format": "cell-based", "settings": "for PSI10 in all cell lines: ASO, all cell lines of FIGS. 12A-12C (LAN5, HeLa mini-genes, htau primary neurons)", "description": "(§1) RNA Isolation and Real-Time Quantitative PCR (RT-qPCR). HeLa cells were treated as described in the Luciferase Reporter assay to Study Exon 10 Alternative Splicing. LAN5 cells were seeded in 12-well plates at 0.2×10^6 cells per well, treated with compound or ASO, and incubated for 48 h. Compound stocks prepared in DMSO and ASO stocks prepared in water were diluted in growth medium and added to cells. Total RNA was extracted from cells and analyzed via RT-qPCR to determine levels of 3R and 4R tau mRNA. In brief, the cells were washed with 1×DPBS and then lysed in the well using 300 μL of Lysis Buffer provided in a Quick-RNA MiniPrep kit (Zymo Research), which was used to extract total RNA per the manufacturer's protocol including the on-column DNase I digestion. The concentration of total RNA was measured by NanoDrop 2000 (Thermo Fisher Scientific). Only samples with OD260/OD280>1.8 were carried forward for analysis. Reverse transcription (RT) was carried out on 200 ng of total RNA using a qScript cDNA synthesis kit (QuantaBio) in a total volume of 10 μL according to the manufacturer's protocol. An Applied Biosystems QS5 384-well PCR system was used to complete qPCR reactions with Power SYBR Green Master Mix (Life Technologies), 600 nM each primer (Table S3), 20 ng of cDNA (1 μL of the RT reaction), in a total volume of 33 μL. Technical triplicates (10 μL each) were aliquoted into 384-well qPCR plates (Applied biosystems, 4483285). Subsequent qPCR analysis was performed using an Applied Biosystems QS5 384-well PCR system (software v.1.3.0). 4R/3R ratio were analyzed using ΔΔCt method using Equation 2: […]\n(§2) where ΔCt 4R or ΔCt 3R is the difference between the Ct values for the 4R or 3R MAPT mRNA and a housekeeping gene (18S rRNA) in total RNA from cells."}, "[3]": {"tested_on": "DDPAC I17T MAPT mini-gene (exon 10 splicing)", "experiment": "4R/3R MAPT mRNA by RT-qPCR, HeLa cells transfected with DDPAC I17T mini-gene", "format": "cell-based", "settings": "ASO 0.5 μM", "description": "as §1, §2"}, "[4]": {"tested_on": "WT I17T MAPT mini-gene (exon 10 splicing)", "experiment": "4R/3R MAPT mRNA by RT-qPCR, HeLa cells transfected with WT I17T mini-gene", "format": "cell-based", "settings": "ASO 0.5 μM", "description": "as §1, §2"}, "LAN5 transcriptome": {"tested_on": "LAN5 transcriptome", "experiment": "RNA-seq transcriptome-wide selectivity in LAN5 cells", "format": "cell-based, human", "description": "RNA-Seq. LAN5 cells in 12-well plate (~60% confluency) were treated with 2 (1.5 μM), 0.1% (v/v) DMSO (vehicle), 4R-to-3R tau ASO (0.5 μM), or scrambled ASO (0.5 μM) for 48 h. Total RNA was extracted using an RNeasy Mini Kit (Qiagen) per the manufacturer's protocol. Next, rRNA was depleted using NEBNext rRNA depletion modules (E6310L, New England Biosciences) and prepared with NEBNext Ultra II Dir RNA Lib Prep Kit (E7760S, New England Biosciences) according to the manufacturer's protocol. The prepared libraries were processed with NextSeq 500/550 High Output Kit v2.5 (Illumina, 20024907) per the manufacturer's protocol and then sequenced on a NextSeq 500. After sequencing, the BCL files were converted to FASTQ files using basemount/0.12.8.1516 and bcl2fastq/2.17.1.14.^33 The sequencing depth was over 82 million for each sample.\nFastQC^34 and RSeQC^35 were used to determine the quality of reads and any overrepresentation of sequences. HISAT2^36 was used to map the reads to the reference human genome (hg19), and the output SAM files were converted to BAM files and sorted by index. Kallisto^37 and NCBI reference sequences (RefSeq)^38 were used for gene quantification to calculate transcripts per million (TPM). Differentially expressed genes were detected with Sleuth^39 and determined by a multiple test corrected p-value<0.05. Splicing event PSI values were quantitated using MISO.^40"}, "[5]": {"tested_on": "MAPT exon 10 splicing in primary neurons from htau mice", "experiment": "4R/3R MAPT mRNA by RT-qPCR in primary neurons from htau mice", "format": "cell-based, human MAPT in htau transgenic mouse neurons", "settings": "48 h", "description": "as §1\nIsolation and Treatment of Primary Neurons from Humanized tau (hTau) Transgenic Mice. All animal studies were completed as approved by the Scripps Florida Institutional Animal Care and Use Committee. […]"}}, "data": [{"compound": "NC(=O)N1c2ccccc2C=Cc2ccccc21", "note": "[Carbamazepine, reference compound]", "values": [{"measurement": "fraction unbound at 6 h", "setting": "[1]", "result": "0.377 ± 0.042"}]}, {"compound": "scrambled ASO: scrambled ASO 5′-CTGTCTGACGTTCTTTGT-3′ (SEQ ID NO: 2), negative control (chemistry not given here) [reference compound]", "values": [{"measurement": "PSI10 in all cell lines", "setting": "[2]", "result": "not scrambled ASO was also downregulated"}, {"measurement": "effect on 4R/3R ratio", "setting": "[3]", "result": "not scrambled ASO altered the 4R/3R ratio"}, {"measurement": "effect on 4R/3R ratio", "setting": "[4]", "result": "not scrambled ASO altered the 4R/3R ratio"}]}, {"compound": "tau ASO: Vivo-Morpholino antisense oligonucleotide targeting the MAPT exon-10-intron junction hairpin, 5′-TGAAGGTACTCACACTGCCGC-3′ (SEQ ID NO: 1) (all phosphorodiamidate morpholino (PMO); Vivo-Morpholino: morpholino with attached delivery moiety, further chemistry not fully specified) [reference compound]", "values": [{"measurement": "reduction of 4R/3R MAPT ratio", "setting": "[2]; ASO 0.5 μM, LAN5, 48 h", "result": "~ 82%"}, {"measurement": "PSI10 in all cell lines", "setting": "[2]", "result": "also downregulated in all cell lines"}, {"measurement": "expression of MAPT gene", "setting": "LAN5 transcriptome; 2 at 1.5 μM or ASO 0.5 μM", "result": "Neither 2 nor the ASO altered the expression of MAPT gene"}, {"measurement": "alternative splicing of MAPT exons (exon 10)", "setting": "LAN5 transcriptome; 2 at 1.5 μM or tau ASO 0.5 μM", "result": "only one significantly reduced"}, {"measurement": "genes unchanged, percent", "setting": "LAN5 transcriptome; tau ASO 0.5 μM, 48 h", "result": 99.97, "unit": "%"}, {"measurement": "4R/3R ratio and PSI10", "setting": "[5]", "result": "dose dependent reduction"}, {"measurement": "effect on 4R/3R ratio", "setting": "[3]", "result": "altered the 4R/3R ratio"}, {"measurement": "effect on 4R/3R ratio", "setting": "[4]", "result": "altered the 4R/3R ratio"}]}]}
